These results are taken from publication PMC10567917 (Archives of Toxicology, 2023).

Data set [1] relates to primary human hepatocytes.
Data set [2] has as its system primary human hepatocytes. It is filed as in vitro ADME.
The test system of data set [3] is primary mouse hepatocytes.
Data set [4] relates to intracellular proteins of primary human hepatocytes.
A further data set relates to rainbow trout. The settings on record: in vivo; cited from earlier work.

Several values for one entry are separate records, joined by “and”; a condition that tells them apart may be missing. Equal entries are not always repeated.

Consider `COc1cc2c(c3oc(=O)c4c(c13)CCC4=O)[C@@H]1C=CO[C@@H]1O2` [AFB1, Aflatoxin B1], for which, in data set [1], the “AFB1 remaining in culture medium” value turned out to be 8.54 µM and the “concentration in culture medium” value was found to be 636 nM. In addition, the “estimated intracellular concentration of AFB1” value in data set [2] is listed as 1 mM. Moreover, the “AFB1 remaining in culture medium” value in the data set on primary rat hepatocytes was determined as 3.48 µM. In addition, in data set [3], the “AFB1 in culture medium” value is “no longer detectable”, the “AFB1 remaining in culture medium” value turned out to be 0.2 µM and the “time up to which AFB1 was detectable in culture medium” value is reported as “up to 6 h”.

With `COc1cc2c(c3oc(=O)c4c(c13)CCC4=O)[C@H]1[C@@H](O2)OC(SCC(NC(=O)CCC(N)C(=O)O)C(=O)NCC(=O)O)[C@@H]1O` (stereo partly shown) [AFB1-GSH, AFB1-glutathione], in data set [1], the “detection in culture medium” value is “not detected”. Further, in data set [2], the intracellular detection result was “not detected”. Moreover, in the data set on primary rat hepatocytes, the “concentration in culture medium” value worked out at 72 nM and the “concentration in culture medium (plateau)” value came out at 415 nM.

`COc1cc(O)c(C2=CC(=O)N(CCCC[C@H](N)C(=O)O)C2)c2oc(=O)c3c(c12)CCC3=O` [AFB1-Lys, AFB1-lysine]: the “detection in culture medium” value in the data set on primary rat hepatocytes is on record as “detected only in trace amounts”. Besides, in data set [4], the “AFB1-Lys in proteins of cell lysate” value is “around 1.0 pmol”.

`COc1cc2c(c3oc(=O)c4c(c13)CCC4=O)[C@H]1[C@@H](O2)OC(SCC(NC(C)=O)C(=O)O)[C@@H]1O` (stereo partly shown) [AFB1-NAC, AFB1-N-acetylcysteine]: the “detection in culture medium” value in data set [1] is “not detected”.

Consider `COc1cc2c(c3oc(=O)c4c(c13)CCC4=O)C1(O)C=COC1O2` (stereo not shown) [AFM1, aflatoxin M1], for which the “concentration in culture medium” value in data set [1] was 33 nM and 46 nM. In data set [3], the “maximum concentration in culture medium” value is 353 nM.

Take `O=C1CCc2c1c(=O)oc1c3c(cc(O)c21)O[C@H]1OC=C[C@@H]31` [AFP1, aflatoxin P1]: the “detection in culture medium” value in data set [1] is “just formed in trace amounts”; in the data set on primary rat hepatocytes it was “detected only in trace amounts”. Further, in data set [3], the “maximum concentration in culture medium” value is 896 nM.

Regarding `O=C1CCc2c1c(=O)oc1c3c(cc(O[C@@H]4O[C@H](C(=O)O)[C@@H](O)[C@H](O)[C@H]4O)c21)O[C@H]1OC=C[C@@H]31` [AFP1-Glc, AFP1 glucuronide], in data set [1], the “detection of AFP1-Glc” value is “no AFP1-Glc was detectable”. Also, in data set [3], the “AFP1-Glc level in mouse samples relative to rat samples” value is “about 100 fold”.

For `COc1cc2c(c3oc(=O)c4c(c13)[C@@H](O)CC4=O)[C@@H]1C=CO[C@@H]1O2` [AFQ1, aflatoxin Q1], the “carcinogenic potency relative to AFB1” value with rainbow trout was “about 1%”. Moreover, in the data set with primary rat hepatocytes, the Formation rate was 87 pmol/h and 74 700 pmol/h; the “concentration in culture medium” value is on record as 112 nM. The “maximum concentration in culture medium” value in data set [3] worked out at 25 nM.
